pEC50: −log10 of the molar value.
Legend:
[1] = molecular target: T1, Beta-3 adrenergic receptor (Homo sapiens, UniProt P13945); experiment: (§1) In vitro effective concentration against beta-3 adrenergic receptor.
[2] = molecular target: T1, Beta-3 adrenergic receptor; experiment: as §1; remark: listed apart in the source

T1 sequence (P13945 whole entry): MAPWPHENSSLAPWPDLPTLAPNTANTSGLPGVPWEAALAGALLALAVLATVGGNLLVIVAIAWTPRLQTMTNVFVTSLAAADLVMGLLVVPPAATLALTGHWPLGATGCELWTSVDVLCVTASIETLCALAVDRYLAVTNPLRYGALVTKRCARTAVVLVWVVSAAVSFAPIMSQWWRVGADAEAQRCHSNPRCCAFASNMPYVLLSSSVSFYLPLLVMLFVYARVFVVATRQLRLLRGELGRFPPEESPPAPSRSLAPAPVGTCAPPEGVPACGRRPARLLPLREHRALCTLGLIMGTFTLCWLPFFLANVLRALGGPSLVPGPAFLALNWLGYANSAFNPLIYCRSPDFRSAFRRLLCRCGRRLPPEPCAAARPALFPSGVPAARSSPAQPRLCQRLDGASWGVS

pEC50 [1]	pEC50 [2]	Structure (SMILES)
6.56	–	CCCCCCN1CC(=O)N(c2ccc(S(=O)(=O)Nc3ccc(CCNC[C@H](O)c4cccnc4)cc3)cc2)C1=O
7.82	7.82	CCCCCCCCN1NCN(c2ccc(S(=O)(=O)Nc3ccc(CCNC[C@H](O)c4cccnc4)cc3)cc2)C1=O
8.27	8.27	CCCCCCCCN1CNN(c2ccc(S(=O)(=O)Nc3ccc(CCNC[C@H](O)c4cccnc4)cc3)cc2)C1=O
